Test results published in article PMC5111045, “Modulation of NMDA channel gating by Ca^2+ and Cd^2+ binding to the external pore mouth” (Scientific Reports, 2016).
Read-outs that look alike come from different tables or passages of the source.

Tests used:
[1] = molecular target: T1, NMDA receptor channel (GluN1a variant/GluN2B), wild-type (Rattus norvegicus, UniProt P35439+Q00960); test: Outside-out patch recordings of NMDA receptor currents, wild-type channel expressed in Xenopus oocytes; type: cell-based
T1 construct: expressed in transfected cells; host or cells: Xenopus laevis oocytes (cRNA injection)
T1 sequence (Q00960 27-1482, other chains not shown): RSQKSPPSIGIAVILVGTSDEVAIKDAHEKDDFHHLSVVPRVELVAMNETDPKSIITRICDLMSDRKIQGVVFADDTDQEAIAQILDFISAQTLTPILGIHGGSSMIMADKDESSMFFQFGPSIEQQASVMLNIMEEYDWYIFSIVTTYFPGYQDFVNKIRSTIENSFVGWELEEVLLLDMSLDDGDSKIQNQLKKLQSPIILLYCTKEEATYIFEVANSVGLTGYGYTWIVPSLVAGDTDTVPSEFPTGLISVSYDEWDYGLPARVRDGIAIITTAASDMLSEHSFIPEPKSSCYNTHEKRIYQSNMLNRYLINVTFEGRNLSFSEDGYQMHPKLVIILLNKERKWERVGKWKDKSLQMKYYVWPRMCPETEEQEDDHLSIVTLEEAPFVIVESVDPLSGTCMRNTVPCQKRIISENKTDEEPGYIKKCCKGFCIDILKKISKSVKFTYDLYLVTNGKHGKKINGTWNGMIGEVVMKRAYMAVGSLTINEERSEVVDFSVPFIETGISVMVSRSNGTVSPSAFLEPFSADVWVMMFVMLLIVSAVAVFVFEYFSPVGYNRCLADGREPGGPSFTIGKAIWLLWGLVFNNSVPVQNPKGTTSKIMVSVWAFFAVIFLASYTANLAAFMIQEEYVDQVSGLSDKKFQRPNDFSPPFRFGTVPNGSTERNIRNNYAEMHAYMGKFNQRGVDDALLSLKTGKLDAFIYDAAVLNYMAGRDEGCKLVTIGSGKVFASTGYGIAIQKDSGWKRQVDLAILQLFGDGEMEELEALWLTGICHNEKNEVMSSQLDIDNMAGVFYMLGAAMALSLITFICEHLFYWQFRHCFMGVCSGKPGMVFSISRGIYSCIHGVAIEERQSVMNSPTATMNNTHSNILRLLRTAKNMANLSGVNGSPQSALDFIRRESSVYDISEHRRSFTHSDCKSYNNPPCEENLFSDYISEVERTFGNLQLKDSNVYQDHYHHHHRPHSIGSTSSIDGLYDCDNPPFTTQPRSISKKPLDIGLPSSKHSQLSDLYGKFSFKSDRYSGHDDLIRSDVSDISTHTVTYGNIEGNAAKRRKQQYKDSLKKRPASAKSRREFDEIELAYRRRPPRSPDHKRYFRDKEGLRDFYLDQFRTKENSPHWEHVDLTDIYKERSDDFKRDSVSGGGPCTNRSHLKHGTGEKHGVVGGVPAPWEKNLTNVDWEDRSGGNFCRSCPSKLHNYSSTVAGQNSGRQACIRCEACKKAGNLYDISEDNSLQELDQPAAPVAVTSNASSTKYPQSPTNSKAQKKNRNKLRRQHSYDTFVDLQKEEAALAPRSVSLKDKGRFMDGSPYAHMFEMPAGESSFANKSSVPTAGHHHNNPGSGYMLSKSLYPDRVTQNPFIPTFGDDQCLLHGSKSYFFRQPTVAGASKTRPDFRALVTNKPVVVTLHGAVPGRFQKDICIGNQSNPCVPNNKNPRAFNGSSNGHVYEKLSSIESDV
Experimental: (§1) The rat GluN1a variant and GluN2B cDNA clones were used in this study. Point mutations were made by site-directed mutagenesis using the QuickChange Site-Directed Mutagenesis kit (Stratagene, La Jolla, CA). Mutations were verified by DNA sequencing to ensure the lack of any inadvertent mutations. The capped cRNA transcripts were then synthesized using T7 and T3 mMESSAGE mMACHINE transcription kits (Ambion, Austin, TX), and were stored at −80 °C.
(§2) This study was carried out in accordance with the ethical information guidelines of the National Taiwan University College of Medicine. The protocols for the care and use of animals were approved by the National Taiwan University College of Medicine and College of Public Health Institutional Animal Care and Use Committee (IACUC). All efforts were made to minimize animal suffering. Adult female Xenopus laevis were anesthetized, and ovarian lobes containing stage V or VI oocytes were removed. Oocytes were dispersed after manual disruption of the egg sac, and were digested for 1 hr with collagenase type I (2 mg/ml) to remove the follicular layer. A mixture of GluN1a variant and GluN2B cRNAs with a ratio of 1:5 (i.e., 0.1–4 ng of GluN1a variant and 0.5–20 ng of GluN2B) (Kashiwagi et al. 2002) was injected into oocytes. Oocytes were maintained in the culture medium (96 mM NaCl, 2 mM KCl, 1.8 mM MgCl2, 1.8 mM CaCl2, 5 mM HEPES, and 50 ug/ml gentamycin, pH 7.6) at 18 °C for 2–3 days before electrophysiological recordings.
Oocytes were placed in a recording chamber containing Mg^2+-free bath solution (150 mM NaMeSO3, 5 mM NaCl, and 10 mM HEPES; pH 7.4). Outside-out patch recordings were obtained using fire-polished pipettes pulled from borosilicate capillaries (outer diameter, 1.55–1.60 mm; Hilgenberg, Malsfeld, Germany). Recording pipettes ([…]) were filled with the pipette solution containing 150 mM NaMeSO3, 5 mM NaCl, 5 mM EGTA, and 10 mM HEPES (pH 7.4). A seal was formed, and the outside-out patch configuration was obtained in Tyrode’s solution (150 mM NaCl, 4 mM KCl, 2 mM MgCl2, 2 mM CaCl2, and 10 mM HEPES; pH 7.4). The patch was then lifted from the bottom of the chamber and moved in front of a set of “theta glass” tubes (2.0 mm outer diameter pulled to an opening of ~300 μm in width; Warner Instrument, Hamden, CT) emitting external recording solutions. The standard external solution was Mg^2+-free Ca^2+-free Tyrode’s solution (pH 7.4), but 2 mM Ca^2+ or 0.1–100 μM Cd^2+ may be added to the external recording solution as specified in each different experimental condition. The glass-tube holder was connected to a stepper motor (SF-77B perfusion system, Warner Instrument) to achieve fast switch for rapid solution change. Drugs and salts were purchased from Sigma (St. Louis, MO). NMDA, glycine, and Cd^2+ were dissolved in water to make 100, 100, and 10 mM stock solutions, respectively. The stock solutions were then diluted into the external recording solution to make 1 to 100 μM Cd^2+, 1 to 300 μM NMDA, and 30 μM glycine. The NMDA currents were recorded at a membrane potential of −70 mV and at room temperature (~25 °C) with an […] amplifier, filtered at 1 kHz with a four-pole Bessel filter, digitized at 500 μs intervals, and stored using a Digidata-1322A analog/digital interface along with the pCLAMP software (all from MDS Analytical Technologies, Sunnyvale, CA). To plot the activation and the desensitization curves, a patch was moved from the NMDA- and glycine-free external solution to the external solution containing 0 to 100 μM NMDA and 30 μM glycine for 3 s (the desensitization prepulse), and then moved to another external solution containing 300 μM NMDA and 30 μM glycine for 3 s (the test pulse) before being moved back to the NMDA-free external solution again. The amplitude of the sustained currents in the desensitization prepulse in each different concentration of NMDA is normalized to the maximal current and plotted against the NMDA concentration to obtain the activation curve. […]

[2] = molecular target: T2, E661AE662A double mutant NMDA channel (Rattus norvegicus, UniProt P35439+Q00960, E661A/E662A); test: Outside-out patch recordings, E661AE662A double mutant NMDA channel; type: cell-based; conditions: 2 mM extracellular Ca2+; n = 6, WT n = 9; P = 5.1*10^−5
T2 construct: expressed in transfected cells; host or cells: Xenopus laevis oocytes (cRNA injection)
T2 sequence (Q00960 27-1482, other chains not shown): as above
Experimental: as §1, §2
Oocytes were placed in a recording chamber containing Mg^2+-free bath solution (150 mM NaMeSO3, 5 mM NaCl, and 10 mM HEPES; pH 7.4). Outside-out patch recordings were obtained using fire-polished pipettes pulled from borosilicate capillaries (outer diameter, 1.55–1.60 mm; Hilgenberg, Malsfeld, Germany). Recording pipettes ([…]) were filled with the pipette solution containing 150 mM NaMeSO3, 5 mM NaCl, 5 mM EGTA, and 10 mM HEPES (pH 7.4). A seal was formed, and the outside-out patch configuration was obtained in Tyrode’s solution (150 mM NaCl, 4 mM KCl, 2 mM MgCl2, 2 mM CaCl2, and 10 mM HEPES; pH 7.4). The patch was then lifted from the bottom of the chamber and moved in front of a set of “theta glass” tubes (2.0 mm outer diameter pulled to an opening of ~300 μm in width; Warner Instrument, Hamden, CT) emitting external recording solutions. The standard external solution was Mg^2+-free Ca^2+-free Tyrode’s solution (pH 7.4), but 2 mM Ca^2+ or 0.1–100 μM Cd^2+ may be added to the external recording solution as specified in each different experimental condition. The glass-tube holder was connected to a stepper motor (SF-77B perfusion system, Warner Instrument) to achieve fast switch for rapid solution change. Drugs and salts were purchased from Sigma (St. Louis, MO). NMDA, glycine, and Cd^2+ were dissolved in water to make 100, 100, and 10 mM stock solutions, respectively. The stock solutions were then diluted into the external recording solution to make 1 to 100 μM Cd^2+, 1 to 300 μM NMDA, and 30 μM glycine. The NMDA currents were recorded at a membrane potential of −70 mV and at room temperature (~25 °C) with an […] amplifier, filtered at 1 kHz with a four-pole Bessel filter, digitized at 500 μs intervals, and stored using a Digidata-1322A analog/digital interface along with the pCLAMP software (all from MDS Analytical Technologies, Sunnyvale, CA). […]

[3] = molecular target: T3, T647A (GluN2B) mutant NMDA channel (Rattus norvegicus, UniProt P35439+Q00960, T647A); test: Outside-out patch recordings, T647A (GluN2B) mutant NMDA channel; type: cell-based; conditions: 2 mM Ca2+; P = 0.028
T3 construct: expressed in transfected cells; host or cells: Xenopus laevis oocytes (cRNA injection)
T3 sequence (Q00960 27-1482 T647A, other chains not shown): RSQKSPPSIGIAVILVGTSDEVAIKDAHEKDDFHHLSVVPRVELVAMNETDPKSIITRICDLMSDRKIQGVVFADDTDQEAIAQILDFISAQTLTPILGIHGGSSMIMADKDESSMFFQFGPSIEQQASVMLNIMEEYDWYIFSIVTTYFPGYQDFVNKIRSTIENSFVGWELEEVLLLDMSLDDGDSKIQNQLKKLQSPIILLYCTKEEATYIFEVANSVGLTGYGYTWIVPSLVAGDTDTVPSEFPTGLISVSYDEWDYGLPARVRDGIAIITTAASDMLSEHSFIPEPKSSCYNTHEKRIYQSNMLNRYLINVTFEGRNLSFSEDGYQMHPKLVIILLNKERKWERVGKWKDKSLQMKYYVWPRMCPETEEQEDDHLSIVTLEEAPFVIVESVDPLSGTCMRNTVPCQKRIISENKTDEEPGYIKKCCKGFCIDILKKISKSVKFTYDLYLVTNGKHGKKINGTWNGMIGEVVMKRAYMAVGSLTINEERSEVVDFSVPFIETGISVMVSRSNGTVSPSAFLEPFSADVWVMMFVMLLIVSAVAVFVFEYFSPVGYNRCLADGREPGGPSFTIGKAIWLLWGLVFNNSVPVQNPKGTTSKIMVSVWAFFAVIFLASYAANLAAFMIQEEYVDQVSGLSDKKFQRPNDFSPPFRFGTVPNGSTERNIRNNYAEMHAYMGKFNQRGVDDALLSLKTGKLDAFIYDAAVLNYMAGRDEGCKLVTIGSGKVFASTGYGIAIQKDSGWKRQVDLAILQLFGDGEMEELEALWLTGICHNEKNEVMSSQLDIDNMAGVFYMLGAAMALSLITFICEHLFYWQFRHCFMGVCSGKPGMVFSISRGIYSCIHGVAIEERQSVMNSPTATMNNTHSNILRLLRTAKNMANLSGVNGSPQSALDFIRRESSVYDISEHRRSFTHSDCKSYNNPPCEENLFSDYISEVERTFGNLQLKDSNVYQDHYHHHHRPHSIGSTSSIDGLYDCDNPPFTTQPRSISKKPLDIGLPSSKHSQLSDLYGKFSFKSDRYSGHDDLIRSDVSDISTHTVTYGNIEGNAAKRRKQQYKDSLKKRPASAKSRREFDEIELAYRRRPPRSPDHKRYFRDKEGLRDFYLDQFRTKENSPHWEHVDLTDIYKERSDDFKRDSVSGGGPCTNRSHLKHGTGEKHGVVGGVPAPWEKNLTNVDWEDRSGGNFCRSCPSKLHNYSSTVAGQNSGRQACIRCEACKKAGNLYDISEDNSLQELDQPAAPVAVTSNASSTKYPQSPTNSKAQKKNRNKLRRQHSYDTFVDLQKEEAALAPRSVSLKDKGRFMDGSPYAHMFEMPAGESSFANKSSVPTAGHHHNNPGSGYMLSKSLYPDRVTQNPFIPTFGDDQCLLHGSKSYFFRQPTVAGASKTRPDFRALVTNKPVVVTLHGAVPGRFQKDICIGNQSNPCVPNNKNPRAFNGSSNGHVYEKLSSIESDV
Experimental: as §1, §2
Oocytes were placed in a recording chamber containing Mg^2+-free bath solution (150 mM NaMeSO3, 5 mM NaCl, and 10 mM HEPES; pH 7.4). […] The NMDA currents were recorded at a membrane potential of −70 mV and at room temperature (~25 °C) with an […] amplifier, filtered at 1 kHz with a four-pole Bessel filter, digitized at 500 μs intervals, and stored using a Digidata-1322A analog/digital interface along with the pCLAMP software (all from MDS Analytical Technologies, Sunnyvale, CA). […]

[4] = test system: wild-type NMDA channel; set-up: method as in PMID 12451122; conditions: 1 mM Ca2+; decreased from 73 pS; cited from earlier work
[5] = test system: triple mutant NMDA channel (three negatively charged DRPEER residues neutralized); set-up: method as in PMID 12451122; conditions: 1 mM Ca2+; decreased from 56 pS; cited from earlier work

Row | Compound | Kd ([1]; read-out: apparent dissociation constant of NMDA (KN), fit to activation data) [µM] | Kd ([1]; read-out: apparent dissociation constant of NMDA (KN), fit to desensitization data) [µM] | effect on NMDAR current, cation present during the NMDA pulse ([1]; 2 mM extracellular Ca2+, 300 μM NMDA plus 30 μM glycine) | effect on NMDAR current peak, cation applied before but not during the NMDA pulse ([1]; 2 mM extracellular Ca2+, closed channel) | effect on sustained current (relative current) compared with WT channel [2] | relative hook current after wash-off of agonists and blocking cation, compared with WT channel [3] | overall current flow through the NMDA channel in Ca2+ [4] [pS] | overall current flow through the NMDA channel in Ca2+ [5] [pS]
1 | CN[C@H](CC(=O)O)C(=O)O [NMDA] | 47 | 35 |  |  |  |  |  | 
2 | [Ca+2] [Ca^2+] |  |  | decreases the NMDAR current | evident decrease of the NMDAR current peak | significantly decreased | significantly larger hook current | 41 | 45
